Experimental data: patent US12616697B2, “Methods of treatment with myosin modulator” (MyoKardia, Inc., priority 2020, dated 2026)

Tested on: subjects with symptomatic non-obstructive HCM (nHCM)
Test: […]-HCM Phase 2 randomized, double-blind, placebo-controlled, concentration-guided study
Assay type: in vivo, human
Design: Overall KCCQ Summary Score, mean change / Clinical KCCQ Summary Score, mean change / Overall KCCQ Summary Score / Clinical KCCQ Summary Score: scale not given here
Conditions: for LVEF, mean change: Week 16
Source text: This is a Phase 2 trial designed to assess the safety and tolerability of a range of exposures over 16 weeks of treatment in subjects with symptomatic, non-obstructive HCM. All study subjects were required to be diagnosed with non-obstructive HCM, with left ventricular wall thickness either ≥15 mm or ≥13 mm with a family history of HCM, LVEF≥55%, NYHA classifications of Class II or III, and NT-proBNP levels of greater than 300 pg/mL at rest. Baseline characteristics, such as age, weight, gender, pathogenic mutation status, background beta blocker use, NYHA classification and exercise capacity were approximately evenly distributed between active and placebo arms.
This double-blind study enrolled 59 individuals with nHCM (Left ventricular outflow tract gradient<30 mmHg; resting or provoked), NYHA Class II or III, and LVEF≥55%. Subjects were randomized 1:1:1 to one of two target plasma drug concentrations (Group 1: ˜200 ng/mL and Group 2: ˜500 ng/mL) or placebo for 16 weeks, followed by an 8-week washout. […] Predefined criteria, including LVEF (LVEF≤45%), guided study drug discontinuation if indicated. Cardiopulmonary exercise testing was performed at baseline and Week 16 to assess the impact on exercise capacity.
Dose adjustments will be based on PK parameters. Assessments include safety, standardized cardiopulmonary exercise testing (CPET) with measurement of peak oxygen consumption, echocardiography to evaluate left ventricular ejection fraction (LVEF) and parameters of diastolic function, symptoms, quality of life, daily step counts, and NT-proBNP at rest and after exercise. In addition, subjects may consent to hypertrophic cardiomyopathy genotyping and pharmacogenetic sampling.
Cardiac Troponin I levels were evaluated on plasma and serum samples of subjects at baseline and at various time points in the trial (Abbott Architect Stat Troponin-I assay (Ref. 2K41)). Cardiac Troponin T levels were evaluated on plasma and serum samples of subjects at baseline and at various time points in the trial (Roche Elecsys Troponin T hs assay) (Ref. 08469873190) performed on a cobas e 801 analyzer). NT-proBNP levels were evaluated on plasma samples using the Roche Elecsys proBNPII assay (Ref. 07027664190) on a cobas e 801 analyzer.
Subjects were randomized via an interactive response system to 3 groups in a 1:1:1 ratio: 2 active treatment groups and 1 matching placebo.
5 mg QD was used as the starting dose for the study. All subjects in the active treatment groups started on 5 mg QD. […] PK modeling was used to guide blinded dose adjustment at the Week 6 visit, based on the plasma concentrations collected at Week 4. Subjects in the placebo group underwent the same assessments in order to preserve the blind. […] Subjects were instructed to take the drug under fasting conditions, at approximately the same time each day, and with 8 ounces of water.
To achieve the target concentration, if a subject's Week 4 concentration was >450 ng/mL, the subject's dose was decreased to 2.5 mg QD; if Week 4 concentration was 110-450 ng/mL, the dose was maintained at 5 mg QD; and if Week 4 concentration was <110 ng/mL, the dose was increased to 10 mg QD.
Subjects were monitored for adverse events (AE), including high blood plasma concentration, systolic dysfunction, QT prolongation, and LVEF decrease. If any of the following thresholds were hit PK 1000 or more, QTcF 500, or LVEF 45%, the subjects were discontinued on drug. Specifically, high blood plasma concentration was defined as blood plasma concentration greater than or equal to 1000 ng/mL; QT prolongation was defined as QTcF greater than or equal to 500 ms; and LVEF shortening was defined as LVEF less than or equal to 45% (including serious adverse event (SAE) for LVEF less than or equal to 30%).
Efficacy and pharmacodynamics assessments were also made. Resting transthoracic echocardiography measurements were taken at Weeks 4, 8, 12 and 16. […]

[1] = Elevated Troponin subgroup, Mean Difference vs placebo
[2] = Elevated Troponin subgroup, mean change from baseline
[3] = Subgroup with Elevated E/e′ at Baseline, Difference mavacamten vs placebo
[4] = Subgroup with Elevated E/e′ at Baseline, pooled, mean change from baseline

CC(C)n1c(=O)cc(N[C@@H](C)c2ccccc2)[nH]c1=O [mavacamten, (S)-3-Isopropyl-6-((1-phenylethyl)amino)pyrimidine-2, 4(1H,3H)-dione]
Composite Functional Endpoint: Met endpoint, either type, % (Combined Subgroup (elevated cTnI or E/e′ average >14), Pooled): 33% | Composite Functional Endpoint: Met endpoint, either type, % (Combined Subgroup, Group 1 ~200 ng/mL): (33.3) % | Composite Functional Endpoint: Met endpoint, either type, % (Combined Subgroup, Group 2 ~500 ng/mL): (33.3) % | Clinical KCCQ Summary Score [1]: 8.8 | NYHA Class [1]: −0.3 | Peak VO2 [1]: 2.70 mL/min/kg | Serum Troponin I (cTnI) [1]: -0.083 ng/mL | Clinical KCCQ Summary Score [2]: 6.9 | NYHA Class [2]: −0.5 | Overall KCCQ Summary Score [2]: 6.4 | Serum Troponin I (cTnI) [2]: -0.12 ng/mL | Clinical KCCQ Summary Score, mean change (ITT, Group 1 ~200 ng/mL): 0.11 | Lateral e′, mean change (ITT, Group 1 ~200 ng/mL): 0.34 cm/s | NYHA Class, mean change (ITT, Group 1 ~200 ng/mL): −0.6 | Overall KCCQ Summary Score, mean change (ITT, Group 1 ~200 ng/mL): 0.35 | Peak VO2, mean change (ITT, Group 1 ~200 ng/mL): 0.36 mL/min/kg | Septal e′, mean change (ITT, Group 1 ~200 ng/mL): 0.64 cm/s | LVEF, mean change (ITT, Group 1 ~200 ng/mL): −2.30% | LVEDV, mean change (ITT, Group 2 ~500 ng/mL): 6.50 mL | NYHA Class, mean change (ITT, Group 2 ~500 ng/mL): −0.3 | Peak VO2, mean change (ITT, Group 2 ~500 ng/mL): 0.12 mL/min/kg | Septal e′, mean change (ITT, Group 2 ~500 ng/mL): 1.60 cm/s | Lateral e′, mean change (ITT, Pooled): 0.94 cm/s | NYHA Class, mean change (ITT, Pooled): −0.4 | Peak VO2, mean change (ITT, Pooled): 0.22 mL/min/kg | LVEF, mean change (ITT, Pooled): −4.1% | Clinical KCCQ Summary Score [3]: 4.1 | LVEDVi [3]: 3.9 mL/m^2 | NYHA Class [3]: 0.0 | Overall KCCQ Summary Score [3]: 0.4 | Peak VO2 [3]: 1.9 mL/min/kg | cTnI [3]: -0.07 ng/mL | Clinical KCCQ Summary Score [4]: 4.6 | LVEDVi [4]: 2.8 mL/m^2 | NYHA Class [4]: −0.4 | Overall KCCQ Summary Score [4]: 4.7 | Peak VO2 [4]: 1.2 mL/min/kg | cTnI [4]: -0.09 ng/mL | Serious adverse events (SAEs), subjects (subjects receiving mavacamten, placebo 21%): 10% | participants with a decrease in LVEF to ≤45%, % (weeks 11-12, active treatment): 12.5%
